Measured values reported in patent US8029764B2, “Methods for detection of colorectal cancer” (The Johns Hopkins University, priority 2001, dated 2011).

System: colorectal tissue transcripts
Test: SAGE of normal, adenoma and cancer colorectal tissue (transcript tag counts)
Parameters: species or system human
Conditions: for AD1 (SAGE tag count): SAGE library AD1; for AD2 (SAGE tag count): SAGE library AD2; for CA1 (SAGE tag count): SAGE library CA1; for CA2 (SAGE tag count): SAGE library CA2; for NC1 (SAGE tag count): SAGE library NC1; for NC2 (SAGE tag count): SAGE library NC2
In short: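 SAGE libraries from two normal colonic epithelium samples, two colorectal adenomas (FAP patients, >70% neoplastic cells) and two colorectal cancers. Transcripts counted as 15-base 3′ tags from oligo(dT)-selected mRNA; repeated ditags, linkers and MHC-locus tags excluded before statistical library comparison.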

Sequence	AD1 (SAGE tag count)	AD2 (SAGE tag count)	CA1 (SAGE tag count)	CA2 (SAGE tag count)	NC1 (SAGE tag count)	NC2 (SAGE tag count)
CTGGCTATCC (chemistry not fully specified)	0	0	0	1	7	3
CTGGGCCTCT (chemistry not fully specified)	2	2	3	3	22	22
CTGTACTTGT (chemistry not fully specified)	1	1	0	0	9	5
CTGTGTGGCT (chemistry not fully specified; the letters are possibly those of the target site)	1	0	0	0	0	12
CTTACAAGCA (chemistry not fully specified)	2	3	4	3	21	13
CTTAGAGGGG (chemistry not fully specified)	0	1	1	1	16	22
CTTATGGTCC (chemistry not fully specified)	0	1	1	0	36	11
CTTCCAGCTA (chemistry not fully specified)	22	20	14	19	64	31
CTTCTTGCCC (chemistry not fully specified)	2	2	0	1	29	2
CTTGACATAC (chemistry not fully specified)	4	4	0	0	18	20
CTTGATTCCC (chemistry not fully specified)	5	0	2	5	26	9
GACATCAAGT (chemistry not fully specified)	23	14	47	17	198	87
GACCAGCCCA (chemistry not fully specified)	3	2	12	5	23	21
GACCAGTGGC (chemistry not fully specified)	4	0	2	0	21	44
GACGCGGCGC (chemistry not fully specified)	10	17	12	17	30	47
GAGAGCTCCC (chemistry not fully specified)	3	0	2	1	5	11
GAGCACCGTG (chemistry not fully specified)	1	0	0	1	7	4
GATATGTAAA (chemistry not fully specified)	0	0	0	0	1	10
GATCCCAACT (chemistry not fully specified)	5	7	1	1	9	29

Sequence	AD1 (SAGE tag count)	AD2 (SAGE tag count)	CA1 (SAGE tag count)	CA2 (SAGE tag count)	NC1 (SAGE tag count)	NC2 (SAGE tag count)
GATGAATCCG (chemistry not fully specified)	2	2	1	2	12	14
GATGACCCCC (chemistry not fully specified)	4	3	3	3	42	49
GCAAGAAAGT (chemistry not fully specified)	0	4	0	1	48	0
GCACAGGTCA (chemistry not fully specified)	1	0	1	1	5	9
GCACCCTTTC (chemistry not fully specified)	0	0	1	0	13	5
GCACCTGTCG (chemistry not fully specified)	0	0	1	0	2	9
GCAGCTCCTG (chemistry not fully specified)	3	2	7	3	13	47
GCAGGAGGTG (chemistry not fully specified; the letters are possibly those of the target site)	0	0	0	1	2	13
GCAGGGCCTC (chemistry not fully specified)	41	69	39	51	128	165
GCCACATACT (chemistry not fully specified)	0	0	0	0	3	9
GCCACGTGGA (chemistry not fully specified)	5	2	7	1	19	16
GCCAGACACC (chemistry not fully specified)	3	4	1	2	19	9
GCCAGGTTGC (chemistry not fully specified)	1	1	1	1	14	5
GCCATCCTCC (chemistry not fully specified)	0	1	0	0	9	13
GCCCACACAG (chemistry not fully specified)	1	1	0	0	15	0
GCCCACGTCA (chemistry not fully specified)	0	0	0	0	7	8
GCCCAGGGCC (chemistry not fully specified; the letters are possibly those of the target site)	2	1	2	1	4	44
GCCCAGGTCA (chemistry not fully specified)	136	128	58	22	519	447
GCCCAGTGGC (chemistry not fully specified)	8	15	2	5	51	0
